These results are taken from paper PMC8280143, “A novel dephosphorylation targeting chimera selectively promoting tau removal in tauopathies” (Signal Transduction and Targeted Therapy, 2021).

For data set [1], the system named is dentate granular cells of Tau368 mice. The data set can be described thus: Sparse labeling: dendritic spine density and mossy fiber puncta area. In kind it is in vivo, mouse. On the procedure: For 2-month male C57BL/6 mice, 10 mM FITC-labeled or unlabeled-DEPTAC were directly injected through the tail vein or lateral ventricle for the evaluation of BBB-penetrability. For 9-month 3×Tg AD mice or Tau368 (20–30 g body weight), unlabeled-DEPTAC (5 mM, 1 μL for each time) was delivered for once into the lateral ventricle through direct stereotaxic injection, or repeatedly administrated through guiding cannulas (RWD, Shenzhen, China) implanted into the lateral ventricle once every 3 days for a consecutive month to test its dephosphorylation efficiency. Mice were restricted in a custom designed device and stayed awake during drug administration, and sacrificed at 24 h post the single or last DEPTAC administration.
A total volume of 0.3 μL mixture of AAV-CaMKIIα-Cre (5.21E+07) and AAV-EF1α-DIO-mCherry (3.24E+12) (1:1 vol/vol) was stereotaxically injected into the dDG of Tau368 mice 1 month following the beginning of dox or normal drinking water administration. Dox was stopped 1-month post AAVs injection, and DEPTAC were delivered through lateral ventricle for a consecutive month. Behavioral tests were performed after the DEPTAC administration, and mice were killed after behavioral tests. Hippocampal sections of 60 μm were obtained, and fluorescent images were taken by a two-photon laser-scanning confocal microscope (LSM710, Zeiss). The dendrite complexity of granular cells in the dorsal dentate gyrus was evaluated by Sholl analysis using Simple Neurite Tracer plugin and ImageJ (Fiji) software. Dendrite spine density and the averaged area of mossy fiber punctas were evaluated using ImageJ by an experimenter blinded from mice groupings. It should be noted that the fluorescence-labeled mossy fibers assembled densely in the CA3 subset, the main target area of mossy fiber axon terminals, making it difficult to accurately measure the puncta areas (data not shown). Therefore, we chose the hilus of DG subset for the measurement, which we believe should be also valid to indicate the axon plasticity of DG granular cells.

Data set [2] has as its system HEK293(hTau) cells. The data set can be described thus: CCK8 cell viability assay. In kind it is cell-based, human. Particulars: to 200 μM, 24 h; normalized to 0-μM group; F(4, 25) = 1.47, P = 0.24. On the procedure:
HEK293 cells with stable expression of wild-type full-length human tau (term as HEK293(hTau) cells), were cultured in DMEM (Hyclone, SH30022.01) containing 10% fetal bovine serum (Biological Industries, 04–001-1ACS) and […] G418 (Thermo Fisher Scientific, 10,131,027) under 5% CO2, 37 °C.
HEK293(hTau) cells were administrated with increasing concentration of DEPTAC for 24 h. About 5000 cells were dispensed into each well of a 96-well plate pre-incubated in a humidified incubator under 37 °C, 5% CO2. A total volume of 10 μL CCK-8 solution was delivered into each well of the plate. The plate was incubated for 1–4 h, and the light absorbance was measured at 450 nm using a microplate reader (BioTek-Synergy2). Cell viability (V) was evaluated by the formula: V = (Ad – A0) / (Av – A0) × 100%, where Ad and Av was the absorbance of DEPTAC-treated and vehicle-treated cells, respectively. A0 was the absorbance of wells with only culture medium and CCK8.

Data set [3] deals with human tau (hTau). As to the kind of experiment: Immunofluorescence staining of phospho-tau in primary neurons with hTau overexpression. Conditions: DEPTAC 200 μM for 24 h; *p < 0.05, **p < 0.01, n = 3 cell wells. Type of data set: cell-based. The procedure:
Lentivirus LV-EF1α-hTau-GFP (3.50E+8 vg/mL) was packaged by OBiO (Shanghai, China) and used for hTau-overexpression (fused with GFP) in cultured primary rat neurons. AAV-CaMKIIα-Cre (diluted to 5.21E + 07 vg/mL) and AAV-EF1α-DIO-mCherry (3.24E + 12 vg/mL) were obtained from BrainVTA (Wuhan, China) and co-injected (1:1 vol/vol) for sparse labeling of dorsal DG neurons. Doxycycline was purchased from Energy Chemical (Shanghai, China). Rabbit polyclonal DEPTAC antibody was prepared by Daian Biotechnology (Wuhan, China). All other reagents including MG132 were purchased from Sigma-Aldrich (USA), unless otherwise specified.
Primary hippocampal neurons were prepared from E12–E15 days SD rat embryos. Briefly, pregnant rats were acutely executed, hippocampus was dissected on ice and gently minced in DME/F12 (Hyclone) then suspended in 0.125% (vol/vol) trypsin solution at 37 °C for 20 min. Enzymatic activity was stopped by fetal bovine serum. Neurons were initially kept in 10% FBS-containing DME/F12 for 4–6 h, and subsequently cultured in Neurobasal (Hyclone) with 2% B27, 1% glutamax and 1% penicillin–streptomycin (Thermo Fisher Scientific) in dishes pre-coated with 100 μg/mL poly-D-lysine. Serum was gradually removed by replacing half of the medium for each time within the following 2 days. […]

Data set [4] relates to tau and PP2A-B. As to the kind of experiment: Co-immunoprecipitation of DEPTAC with tau and PP2A-B in primary neurons. Type of data set: cell-based. Particulars: primary cultured rat neurons. The procedure:
Primary hippocampal neurons were prepared from E12–E15 days SD rat embryos. Briefly, pregnant rats were acutely executed, hippocampus was dissected on ice and gently minced in DME/F12 (Hyclone) then suspended in 0.125% (vol/vol) trypsin solution at 37 °C for 20 min. Enzymatic activity was stopped by fetal bovine serum. Neurons were initially kept in 10% FBS-containing DME/F12 for 4–6 h, and subsequently cultured in Neurobasal (Hyclone) with 2% B27, 1% glutamax and 1% penicillin–streptomycin (Thermo Fisher Scientific) in dishes pre-coated with 100 μg/mL poly-D-lysine. Serum was gradually removed by replacing half of the medium for each time within the following 2 days. Especially, to inhibit the proteasome-dependent proteolysis, the cultured hippocampal neurons were treated with 5 μM MG132 for 5 h before harvest.
For co-immunoprecipitation, cultured cells were lysed on ice with RIPA buffer for 10 min containing 1:100 PMSF. Protein samples were incubated with protein G agarose (Beyotime) at 4 °C for 2 h, and then centrifuged for 5 min (4 °C, 12,000 rpm). Supernatants were subsequently incubated with specified antibodies and protein G agarose overnight at 4 °C. […] Immunoprecipitants were subsequently analyzed through Western blotting.

Where [5] appears, read: Tau368 mice without dox, n = 3 mice.
Setting [6] is: dox-treated Tau368 mice, DEPTAC 1 month after stopping dox, *p < 0.05, n = 5 mice.

Entries after “also recorded” stand apart in the source; their conditions may differ.

In the case of “(1) YQQYQDATADEQG, originates from the porcine β-tubulin 422–434 for recognizing and binding tau proteins.[5],[6] (2) GSGS, a linker for increasing the flexibility of the peptide.[15] (3) KKVAVVRTPPKSP, for recruiting PP2A-Bα,[16] and (4) RRRRRRRR [DEPTAC, DEPhosphorylation TArgeting Chimera; 38 amino acid residues, C185H314N72O56]”, in data set [1] (setting [5]), the “averaged mossy fiber puncta area, without dox” value was “only limited effects” and the “dendritic spine density, without dox” value is “only limited effects”. Also, in data set [1] (setting [6]), the “averaged area of mossy fiber puncta” value is “increased; also recorded: enlarged”, the “mushroom-like dendritic spine density” value is reported as “significantly increased” and the “total dendritic spine density” value is recorded as “significantly increased”. Further, in data set [2], the “cytotoxicity (CCK8)” value is given as “No cytotoxicity”. Further, the “averaged immunoreactive (IR) intensity of phospho-tau” value in data set [3] is reported as “reduced”. In addition, the “total tau level over time” value in data set [4] (6–24 h of post-DEPTAC treatment) is on record as “time-dependent decrease; also recorded: gradual decrease”. In data set [4] (DEPTAC antibody, 24 h / 12 h (b9)), the “co-immunoprecipitation of DEPTAC with tau and PP2A-B” value was “detected; also recorded: confirmed”.
